The values that follow come from article PMC4594013 (Frontiers in Pharmacology, 2015).

The structures appear in SMILES notation. pIC50: −log10 of the molar value. Entries after “also recorded” stand apart in the source; their conditions may differ. Counter-ions that a name gives are not always drawn.

The target of data set [1] is T1, OAT2-tv1 (Homo sapiens, UniProt Q9Y694).
T1 sequence (Q9Y694 1-546 isoform Q9Y694-2): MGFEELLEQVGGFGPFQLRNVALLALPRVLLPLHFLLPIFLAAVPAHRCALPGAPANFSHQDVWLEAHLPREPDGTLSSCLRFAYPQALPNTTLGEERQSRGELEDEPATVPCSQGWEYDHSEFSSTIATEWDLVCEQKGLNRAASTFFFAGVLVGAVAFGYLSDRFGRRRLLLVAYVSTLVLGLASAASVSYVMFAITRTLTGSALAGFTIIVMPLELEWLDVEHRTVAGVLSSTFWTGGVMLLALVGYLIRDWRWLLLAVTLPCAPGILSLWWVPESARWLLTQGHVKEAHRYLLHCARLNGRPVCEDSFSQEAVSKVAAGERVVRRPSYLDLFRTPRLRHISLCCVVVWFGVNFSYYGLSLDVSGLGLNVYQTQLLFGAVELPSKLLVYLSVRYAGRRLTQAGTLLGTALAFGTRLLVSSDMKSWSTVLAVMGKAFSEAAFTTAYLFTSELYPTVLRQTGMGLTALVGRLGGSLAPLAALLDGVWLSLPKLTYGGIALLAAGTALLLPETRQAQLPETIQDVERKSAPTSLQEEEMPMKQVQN
The experiment in a line: Inhibition of [3H]penciclovir uptake into CHO-OAT2-tv1 cells. It counts as cell-based. The conditions noted are these: 5 min; for cis-inhibition of penciclovir uptake: CHO-OAT2-tv1 cells, test compound 1 mM, [3H]penciclovir ∼30 nM. How it is done:
(§1) All experiments examining cellular radiolabeled compound uptake were conducted using cells grown to confluence in 24-well flat bottom plates. The transport solution consisted of WB (room temperature) containing radiolabeled compound and the uptake period for all experiments was at an initial rate time point of 5 min. [^3H]Penciclovir served as the probe OAT2 substrate. We also examined the uptake of [^3H]para-aminohippurate, [^3H]estrone-3-sulfate, [^14C]glutarate, [^14C]succinate, [^3H]paclitaxel, and [^3H]dehydroepiandrosterone sulfate by OAT2 since published studies indicate that they are substrates of the transport protein ([Sun et al., 2001]; [Kobayashi et al., 2005a]). […] For all cellular uptake experiments, the medium was aspirated and the cells were rinsed once with WB (0.3 ml). Following the uptake period, cells were washed three times with ice-cold WB (0.5 ml each wash). After aspirating the final wash the cells were lysed in 0.5 N NaOH/1% SDS (0.4 ml) for ∼30 min on an orbital shaker. 1 N HCl (0.2 ml) was then added to neutralize the NaOH, and the cell lysates (0.5 ml) were transferred to scintillation vials containing liquid scintillation cocktail (CytoScint ES, MP Biomedicals). Cellular radioactivity content was determined with a Beckman LS6500 liquid scintillation counter. Protein content was determined using the bicinchoninic acid method. See the Figure and Table Legends for additional details describing the experimental conditions used.
The concentration of each Kreb’s cycle intermediate was 1 mM. Uptake was conducted for 5 min.

Another data set deals with T2, OAT2-tv2 (Homo sapiens, UniProt Q9Y694).
T2 sequence (Q9Y694 1-548): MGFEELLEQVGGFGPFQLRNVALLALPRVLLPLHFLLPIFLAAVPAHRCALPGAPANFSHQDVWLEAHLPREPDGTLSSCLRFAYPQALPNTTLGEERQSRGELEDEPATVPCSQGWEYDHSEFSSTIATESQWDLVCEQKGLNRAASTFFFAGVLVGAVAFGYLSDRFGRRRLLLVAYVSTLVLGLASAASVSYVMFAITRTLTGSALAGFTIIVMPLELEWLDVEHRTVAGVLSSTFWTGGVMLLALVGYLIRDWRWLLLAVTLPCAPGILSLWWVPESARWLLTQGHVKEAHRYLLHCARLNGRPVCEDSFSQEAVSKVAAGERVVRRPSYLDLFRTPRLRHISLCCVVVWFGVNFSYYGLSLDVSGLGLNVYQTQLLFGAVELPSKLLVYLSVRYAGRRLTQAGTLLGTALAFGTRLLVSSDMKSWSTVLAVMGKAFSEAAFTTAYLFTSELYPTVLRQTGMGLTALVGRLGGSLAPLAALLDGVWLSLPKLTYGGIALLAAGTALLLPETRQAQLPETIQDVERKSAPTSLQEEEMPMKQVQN
Details: method as in Kobayashi et al., 2005a. The conditions noted are these: OAT2-tv2 in Xenopus oocytes pre-loaded with 5 mM compound; ref Kobayashi et al., 2005a; cited from earlier work.

Data set [2] addresses T1, OAT2-tv1. Also noted: The open reading frame of the human ortholog of OAT2 transcript variant 1 (OAT2-tv1) containing 546 amino acids was amplified from human kidney cDNA; expressed in transfected cells; host or cells: CHO Flp-In (A1); CHO, HEK and MDCK Flp-In (A2). The conditions noted are these: ref Babelova et al., 2015; cited from earlier work.
In data set [3] the target is T1, OAT2-tv1. The data set is described as follows: Cellular uptake of radiolabeled compounds by CHO, HEK or MDCK cells stably expressing OAT2-tv1. The protocol:
as §1
FIGURE 2 Cellular accumulation of [^3H]penciclovir (A), [^3H]para-aminohippurate (B), [^3H]estrone-3-sulfate (C), or [^14C]glutarate (D) by parental CHO, HEK, or MDCK cells, or CHO, HEK, or MDCK cells stably expressing either OAT2-tv1 or OAT2-tv2. The concentration of [^3H]penciclovir in the transport solution was 0.1 μM for CHO and MDCK cell experiments, and 0.5 μM for HEK cell experiments. The concentrations of [^3H]para-aminohippurate, [^3H]estrone-3-sulfate and [^14C]glutarate were 8 nM, 10 nM, and 18 μM, respectively. Uptake was conducted for 5 min at room temperature.
FIGURE 4 Cellular accumulation of [^14C]succinate (18.5 μM) by CHO parental cells, CHO-OAT2-tv1 cells or CHO cells stably expressing the Na-dicarboxylate cotransporter 3 (NaDC3). Uptake was conducted for 5 min. Values are the mean ± standard error of the mean of four experiments for CHO parental and CHO-OAT2-tv1 cells. A single uptake experiment was performed with CHO-NaDC3 cells.

Another data set deals with OAT2-tv3. Also noted: method as in Sato et al., 2010. The conditions noted are these: ref Sato et al., 2010, cited from earlier work.
The target of data set [4] is Na-dicarboxylate cotransporter 3 (NaDC3) (Homo sapiens, UniProt Q8WWT9). The conditions noted are these: CHO-NaDC3 cells; [14C]succinate 18.5 μM; 5 min; single experiment (n = 1). How it is done: as §1, with “See the Figure and Table Legends for additional details describing the experimental conditions used.” left out
Data set [5] addresses T1, OAT2-tv1. The conditions noted are these: ref Cropp et al., 2008; cited from earlier work.
Data set [6] has as its system OAT2 (sequence not given). The conditions noted are these: variant unclear; ref Sun et al., 2001; cited from earlier work.
A further data set deals with CHO parental cells. The data set is described as follows: Cellular accumulation of radiolabeled compounds in CHO parental cells. It counts as cell-based, Chinese hamster. The conditions noted are these: [3H]dehydroepiandrosterone sulfate 12 nM, [3H]paclitaxel 22 nM, n = 3.

Chain of Na-dicarboxylate cotransporter 3 (NaDC3) (Q8WWT9 whole entry, species assumed): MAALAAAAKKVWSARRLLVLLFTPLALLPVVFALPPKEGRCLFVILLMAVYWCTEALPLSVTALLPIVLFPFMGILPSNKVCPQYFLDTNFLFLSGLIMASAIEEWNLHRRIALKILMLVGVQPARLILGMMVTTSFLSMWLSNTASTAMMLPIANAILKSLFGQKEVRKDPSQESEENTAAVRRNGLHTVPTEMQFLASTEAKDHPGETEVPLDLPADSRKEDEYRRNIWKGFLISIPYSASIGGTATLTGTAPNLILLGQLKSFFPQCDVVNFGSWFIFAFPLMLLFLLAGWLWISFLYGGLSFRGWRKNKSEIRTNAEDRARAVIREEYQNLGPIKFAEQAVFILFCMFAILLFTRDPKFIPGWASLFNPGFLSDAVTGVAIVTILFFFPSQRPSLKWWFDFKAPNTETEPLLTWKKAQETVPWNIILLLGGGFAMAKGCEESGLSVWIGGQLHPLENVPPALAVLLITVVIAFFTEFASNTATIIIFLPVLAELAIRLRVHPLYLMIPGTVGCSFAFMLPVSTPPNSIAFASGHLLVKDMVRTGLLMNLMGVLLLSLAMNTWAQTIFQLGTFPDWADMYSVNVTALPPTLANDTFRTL

Regarding `O=C(O)/C=C/C(=O)O` [fumarate], the “cis-inhibition of penciclovir uptake” value at OAT2-tv1 [1] is “none of the Kreb’s cycle intermediates tested, including succinate and fumarate, cis-inhibited penciclovir uptake”. Besides, the “stimulation of estrone-3-sulfate uptake by pre-loading” value at OAT2-tv2 was 1.7 fold.

For `O=C(O)/C=C(/CC(=O)O)C(=O)O` [cis-aconitate], at OAT2-tv1 [1], the “cis-inhibition of penciclovir uptake” value is “none of the Kreb’s cycle intermediates tested, including succinate and fumarate, cis-inhibited penciclovir uptake”. For the same compound, the “cis-inhibition of OAT2-tv1-mediated cGMP transport” value on OAT2-tv1 [2] is reported as “did not observe cis-inhibition”.

Regarding `O=C(O)CC(O)(CC(=O)O)C(=O)O` [citrate], the “cis-inhibition of penciclovir uptake” value on OAT2-tv1 [1] was “none of the Kreb’s cycle intermediates tested, including succinate and fumarate, cis-inhibited penciclovir uptake”. Further, on OAT2-tv1 [2], the “cis-inhibition of OAT2-tv1-mediated cGMP transport” value is recorded as “did not observe cis-inhibition”.

In the case of `O=C(O)CCC(=O)O` [succinate], the “uptake of [14C]succinate compared to parental CHO cells” value at OAT2-tv1 [3] (CHO-OAT2-tv1 cells, [14C]succinate 18.5 μM, 5 min) is given as “not different than uptake into the parental CHO cells; also recorded: no significant difference; also recorded: not transported”. Moreover, the “cis-inhibition of penciclovir uptake” value at OAT2-tv1 [1] is “none of the Kreb’s cycle intermediates tested, including succinate and fumarate, cis-inhibited penciclovir uptake”. In addition, the “stimulation of estrone-3-sulfate uptake by pre-loading” value on OAT2-tv2 is 2.1 fold. Besides, in the data set with OAT2-tv3 (OAT2-tv3 in HEK cells pre-loaded with succinate (100 mM)), the “stimulation of urate uptake by pre-loading” value is reported as “failed to observe stimulation”. In [4], the “uptake of [14C]succinate, fold higher than control” value is approximately 30 fold.

`Oc1ncnc2[nH]ncc12` [Allopurinol]: the “substrate of OAT2-tv1” value at OAT2-tv1 [5] is given as “substrate”. This compound showed a negative-log IC50 (pIC50) against OAT2-tv1 [1] (IC50, inhibition of [3H]penciclovir uptake by CHO-OAT2-tv1 cells, room temperature) of 4.15. At OAT2-tv1 [1] (inhibition of [3H]penciclovir uptake by CHO-OAT2-tv1 cells at the maximum concentration of test compound (Table 2, c1), room temperature), the “% Inhibition” value is on record as 95%. In addition, in the data set on OAT2-tv3 (OAT2-tv3 in HEK293 cells), the “inhibition of uric acid transport” value is reported as “did not inhibit uric acid transport”.

Regarding `C[C@]12CC[C@H](OS(=O)(=O)O)CC1=CC[C@@H]1[C@@H]2CC[C@]2(C)C(=O)CC[C@@H]12` [dehydroepiandrosterone sulfate], the cellular accumulation at OAT2-tv1 [3] (CHO-OAT2-tv1 cells, [3H]dehydroepiandrosterone sulfate 12 nM, [3H]paclitaxel 22 nM, n = 3) is given as 11.0 ± 0.54 fmoles ⋅ mg protein^-1 ⋅ min^-1; in the data set on CHO parental cells it was 10.3 ± 1.1 fmoles ⋅ mg protein^-1 ⋅ min^-1. The “mediated transport by OAT2-tv1” value at OAT2-tv1 [3] (expressed in CHO cells) is given as “unable to show mediated transport”. Moreover, the “transport by OAT2” value in data set [6] was “did not observe transport”.

One may read the pIC50 as the IC50 on a negative log10 scale, so that one unit is a factor of ten. What is called % Inhibition is the drop in the measured response relative to a control, in per cent. Higher therefore signals a strong effect.
